In patent US20240409536A1, “COMPOUNDS AND METHODS FOR MODULATING SPLICING” (REMIX THERAPEUTICS INC., priority 2021, published 2024):

How the values were obtained:
MYB mRNA [1] = assay: Gene panel canonical junction qPCR assay, MYB CJ mRNA decrease; format: cell-based, human; details: Homo sapiens, canonical junction qPCR, read-out: MYB IC50 (decrease in CJ mRNA levels)
Description: (§1) Compounds described herein were used to modulate RNA transcript abundance in cells. The expression of a target mRNA was measured by detecting the formation of an exon-exon junction in the canonical transcript (CJ). A compound mediated exon-inclusion event was detected by observing an increase in formation of a new junction with an alternative exon (AJ). Real-time qPCR assays were used to detect these splicing switches and interrogate the potency of various compounds towards different target genes. A high-throughput real time quantitative PCR (RT-qPCR) assay was developed to measure these two isoforms of the mRNA (CJ and AJ) for exemplary genes, such as HTT, SMN2, and MYB, together with a control housekeeping gene, GAPDH or GUSB or PPIA, used for normalization. Briefly, the A673 or K562 cell line was treated with various compounds described herein (e.g., compounds of Formula (I), (I), or (III)). After treatment, the levels of the HTT, MYB, or SMN2 mRNA targets were determined from each sample of cell lysate by cDNA synthesis followed by qPCR.
(§2) The data analysis was performed by first determining the ΔCt vs the housekeeper gene. This ΔCt was then normalized against the DMSO control (ΔΔCt) and converted to RQ (relative quantification) using the 2^(−ΔΔCt) equation. The RQ were then converted to a percentage response by arbitrarily setting an assay window of 3.5 and 4.0 ΔCt for HTT-CJ and MYB-CJ respectively and an assay window of 9 and 3 ΔCt for HTT-AJ and MYB-AJ in 96 well format (50,000 K562 cells/well and 15,000 A673 cells per well) and an assay window of 3 and 4 ΔCt for HTT-CJ and MYB-CJ respectively and an assay window of 5 and 3 ΔCt for HTT-AJ and MYB-AJ respectively in 384 well format (8,000 K562 cells/well example). […] The percentage response was then fitted to the 4 parametric logistic equation to evaluate the concentration dependence of compound treatment. The increase in AJ mRNA is reported as AC50 (compound concentration having […] in AJ increase) while the decrease in CJ mRNA levels is reported as IC50 (compound concentration having 50) response in CJ decrease).
(§3) Additional studies were carried out for a larger panel of genes using the protocol provided above. The junction between flanking upstream and downstream exons was used to design canonical junction qPCR assays. At least one of the forward primer, reverse primer or the CY5-labeled 5′ nuclease probe (with 3′ quencher such as ZEN/Iowa Black FQ) was designed to overlap with the exon junction to capture the CJ mRNA transcript. BLAST was used to confirm the specificity of the probeset and parameters such as melting temperature, GC content, amplicon size, and primer dimer formation are considered during their design. Data for the decrease in CJ mRNA levels for four exemplary genes (HTT, SMN2, MYB, and Target C) analyzed in this panel are reported as IC50 (compound concentration having […] in CJ decrease).
(§4) A summary of the results from the panel is illustrated in Tables 5A and 51B, wherein “A” represents an IC50 of less than 100 nM; “B” represents an IC50 of between 100 nM and 1 μM; and “C” represents an IC50 of between 1 μM and 10 μM; and “D” represents an IC50 of greater than 10 μM.

MYB mRNA [2] = assay: Splicing RT-qPCR assay, MYB canonical (CJ) and alternative (AJ) junction mRNA; format: cell-based; details: Homo sapiens, A673 or K562 cells, 24 hours; for IC50: decrease in canonical junction mRNA; for AC50: increase in alternative junction mRNA
Description: as §1
(§5) • Cells-to-CT 1-step kit: ThermoFisher A25602, Cells-to-CT lysis reagent: ThermoFisher 4391851C, TaqMan™ Fast Virus 1-Step Master Mix: ThermoFisher 4444436 • GAPDH: VIC-PL, ThermoFisher 4326317E (Assay: Hs99999905_ml)—used for K562/suspension cell lines • GUSB: VIC-PL, ThermoFisher 4326320E (Assay: Hs99999908_ml)—used for K562/suspension cell lines • PPIA: VIC-PL, ThermoFisher 4326316E (Assay: Hs99999904_ml)—used for A673/adherent cell lines
(§6) The A673 cell line was cultured in DMEM with 10% FBS. Cells were diluted with full growth media and plated in a 96-well plate (15,000 cells in 100 ul media per well). The plate was incubated at 37° C. with 5% CO2 for 24 hours to allow cells to adhere. An 11-point 3-fold serial dilution of the compounds was made in DMSO then diluted in media in an intermediate plate. Compounds were transferred from the intermediate plate to the cell plate with the top dose at a final concentration of 10 uM in the well. Final DMSO concentration was kept at or below 0.25%. The cell plate was returned to the incubator at 37° C. with 5% CO2 for an additional 24 hours.
(§7) The K562 cell line was cultured in IMDM with 10% FBS. For K562, cells were diluted with full growth media and plated in either a 96-well plate (50,000 cells in 50 uL media per well) or a 384-well plate (8,000-40,000 cells in 45 uL media per well). An 11-point 3-fold serial dilution of the compounds were made in DMSO then diluted in media in an intermediate plate. Compound was transferred from the intermediate plate to the cell plate with the top dose at a final concentration of 10 uM in the well. Final DMSO concentration was kept at or below 0.25%. Final volume was 100 uL for 96-well plate and 50 uL for 384-well plate. The cell plate was then placed in an incubator at 37° C. with 5% CO2 for 24 hours.
(§8) The cells were then gently washed with 50 uL-100 uL cold PBS before proceeding to addition of lysis buffer. 30 uL-50 uL of room temperature lysis buffer with DNAse I (and optionally RNAsin) was added to each well. Cells were shaken/mixed thoroughly at room temperature for 5-10 minutes for lysis to take place and then 3 uL-5 uL of room temperature stop solution was added and wells were shaken/mixed again. After 2-5 minutes, the cell lysate plate was transferred to ice for RT-qPCR reaction setup. The lysates could also be frozen at −80° C. for later use.
(§9) In some cases, a direct lysis buffer was used. An appropriate volume of 3×lysis buffer (10 mM Tris, 150 mM NaCl, 1.5%-2.5% Igepal and 0.1-1 U/uL RNAsin, pH 7.4) was directly added to either K562 or A673 cells in media and mixed by pipetting 3 times. The plates were then incubated at room temperature with shaking/rocking for 20-50 minutes to allow for lysis to take place. After this time, the cell lysate plate was transferred to ice to set up for the RT-qPCR reactions. The lysates could also be frozen at −80° C. for later use. […]

Target C mRNA = assay: Gene panel canonical junction qPCR assay, Target C CJ mRNA decrease; format: cell-based; details: Homo sapiens, canonical junction qPCR, read-out: Target C IC50 (decrease in CJ mRNA levels)
Description: as §1, §2, §3, §4

HTT mRNA [3] = assay: Gene panel canonical junction qPCR assay, HTT CJ mRNA decrease; format: cell-based, human; details: Homo sapiens, canonical junction qPCR, read-out: HTT IC50 (decrease in CJ mRNA levels)
Description: as §1, §2, §3, §4

SMN2 mRNA = assay: Gene panel canonical junction qPCR assay, SMN2 CJ mRNA decrease; format: cell-based, human; details: Homo sapiens, canonical junction qPCR, read-out: SMN2 IC50 (decrease in CJ mRNA levels)
Description: as §1, §2, §3, §4

HTT mRNA [4] = assay: Splicing RT-qPCR assay, HTT canonical (CJ) and alternative (AJ) junction mRNA; format: cell-based; details: Homo sapiens, A673 or K562 cells, 24 hours; for IC50: decrease in canonical junction mRNA; for AC50: increase in alternative junction mRNA
Description: as §1, §5, §6, §7, §8, §9

Row | SMILES | IC50 (MYB mRNA [1]) [nM] | IC50 (MYB mRNA [2]) [nM] | AC50 (MYB mRNA [2]) [nM] | IC50 (Target C mRNA) [nM] | IC50 (HTT mRNA [3]) [nM] | IC50 (SMN2 mRNA) [nM] | IC50 (HTT mRNA [4]) [nM] | AC50 (HTT mRNA [4]) [nM]
1 | CCc1cc2c(N3CCNCC3)ccc(C(=O)Nc3cc(F)c4nc(C)cn4c3)c2nn1 [Compound 185, 3-ethyl-N-{8-fluoro-2-methylimidazo[1,2-a]pyridin-6-yl}-5-(piperazin-1-yl)cinnoline-8-carboxamide] | 100 to 1000 | 100 to 1000 | 100 to 1000 | > 10000 | > 10000 | < 100 | > 10000 | > 10000
2 | Cc1cn2cc(NC(=O)c3c(F)cc(N4CCNCC4)c4ccnnc34)cc(F)c2n1 [Compound 350] | 1000 to 10000 | 1000 to 10000 | 1000 to 10000 | > 10000 | > 10000 | 100 to 1000 | > 10000 | > 10000
3 | Cc1cn2cc(NC(=O)c3ccc(N4CCNCC4)c4ccnnc34)nc2c(C)n1 [Compound 121] | 100 to 1000 | 100 to 1000 | 1000 to 10000 | > 10000 | > 10000 | 100 to 1000 | > 10000 | > 10000
4 | CNC1[C@@H]2C[C@H]1N(c1ccc(C(=O)Nc3cc(F)c4nc(C)cn4c3)c3nnccc13)C2 (stereo partly shown) [Compound 148] | 1000 to 10000 | 1000 to 10000 | 1000 to 10000 | 1000 to 10000 | 1000 to 10000 | 1000 to 10000 | 1000 to 10000 | 1000 to 10000
5 | Cc1cn2cc(NC(=O)c3ccc(N4CC5(CN(C)C5)C4)c4ccnnc34)cc(F)c2n1 [Compound 132] | 100 to 1000 | 100 to 1000 | 100 to 1000 | > 10000 | 1000 to 10000 | < 100 | 1000 to 10000 | 1000 to 10000
